Reference: patent US5605911A, “Use of alpha-2 adrenergic drugs to prevent adverse effects of NMDA receptor hypofunction (NRH)” (priority 1995, dated 1997)

How the values were obtained:
[1] = system: PC/RS cortical neurons; experiment: protection by anti-psychotic drugs against MK-801 (NRH)-induced vacuoles in rats; format: in vivo; details: ip; for protection against vacuoles (activity in words): MK-801-treated rats
Procedure: Control animals received saline or DMSO, but no anti-psychotic drugs. Test animals were injected ip with an antipsychotic drug, listed above and in Table 2. Vacuoles were counted and data were processed as described in Example 1.

[2] = penetration of sulpiride into the CNS; format: in vivo; details: in words
[3] = Sershen 1994; cited from earlier work
[4] = system: cerebral cortex; details: adult rat, literature; cited from earlier work
[5] = system: NMDA receptor; details: humans, literature; cited from earlier work

CCN1CCCC1CNC(=O)c1cc(S(N)(=O)=O)ccc1OC (stereo not shown) [Sulpiride]
ED50 ([1]; Rattus norvegicus, Cortical neurone): > 200 mg/kg | protection against vacuoles (activity in words) [1]: Inactive | protection against vacuoles (activity in words) ([1]; listed as sulpiride): inactive | time to penetrate into the CNS [2]: several hours

CC[C@H]1C[C@H]2C[C@H]3c4[nH]c5ccc(OC)cc5c4CCN(C2)[C@@H]13 [ibogaine]
craving for cocaine [3]: can suppress the craving for cocaine

c1ccc(C2(N3CCCCC3)CCCCC2)cc1 [Phencyclidine]
pathomorphological changes in brain [4]: produce pathomorphological changes in various corticolimbic regions of the adult rat brain | psychotomimetic reactions [5]: can induce a psychosis which is clinically indistinguishable from schizophrenia
